Measurements taken from publication PMC6472409, “Dishevelled-3 conformation dynamics analyzed by FRET-based biosensors reveals a key role of casein kinase 1” (Nature Communications, 2019).
Where a chain is given by its changes, count along the chain named. Where a SMILES comes first, the peptide text is derived from it. [ ]: non-standard residue; d: D form. pS = N[C@@H](COP(=O)(O)O)C(=O)O

Tests used:
Format in all cases: binding
[1] = target: T1, PDZ domain of human DVL2 wild type (aa 265–361) (Homo sapiens, UniProt O14641); test: NMR titration with DVL C-terminal peptide, PDZ wild type
T1 construct: The PDZ domain of human DVL2 wild type (aa 265–361); His6-tag (N, cleaved yes); lipoyl domain (N, cleaved yes); made in house; host or cells: E. coli BL21 (DE3)
T1 sequence (O14641 265-361): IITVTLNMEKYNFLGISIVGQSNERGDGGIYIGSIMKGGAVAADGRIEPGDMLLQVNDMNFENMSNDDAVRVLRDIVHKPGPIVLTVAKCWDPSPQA
Procedure: (§1) The PDZ domain of human DVL2 wild type (aa 265–361) and phosphorylation-mimicking variant S286E + S329E were cloned into pET vector containing an N-terminal His6-tag and a lipoyl domain separated by a Tobacco Etch Virus (TEV) protease digestion site from the N-terminus of the inserts. Both proteins were expressed at high yields in E. coli BL21 (DE3) strain (New England Biolabs, #C2527I). For the NMR studies, ^13C- and ^15N-labeled proteins were prepared by growing cells in minimal medium supplemented with ^15NH4Cl (1 g/l) and ^13C6 glucose (2 g/l) as the sole nitrogen and carbon sources, respectively. Cells were grown at 37 °C to an OD600 of approximately 0.8 and protein expression was induced with 0.5 mM IPTG. Cells were lysed by sonication and centrifuged at 15,000g. Three purification steps were used for both proteins: Ni-NTA chromatography followed by overnight TEV cleavage to remove the N-terminal His6-tag and the lipoyl domain, ion exchange chromatography, and size exclusion chromatography. Finally, the untagged PDZ domain wild type or phosphorylation-mimicking variant was concentrated and exchanged to buffer for NMR or binding experiments containing 20 mM HEPES (pH 6.8) and 50 mM KCl. Human CK1ε (aa 1–294) was also cloned into a pET vector and purified using three purification steps as described for the PDZ domain.
(§2) A 4D HC(CC-TOCSY(CO))NH and a 4D ^13C, ^15N edited HMQC-NOESY-HSQC experiments were recorded at CEITEC Josef Dadok National NMR Centre on a 700 MHz Bruker Avance III spectrometers equipped with ^1H/^13C/^15N TCI cryogenic probe head with z-axis gradients. 4D spectra were processed with SSA package[59] and analyzed with SPARKY. Chemical shift assignments were obtained automatically using 4D-CHAINS[60] and checked manually. NMR titrations were performed in series of ^1H, ^15N HSQC spectra using 100 μM of ^15N-labeled protein (wild type or phosphorylation-mimicking variant) and increasing amounts of C-terminal DVL peptide (pS700) consisted of aa 698–716 from DVL3 (stock concentration of 800 μM). Steady-state^15N-^1H Nuclear Overhauser Effect values were measured under a steady-state condition with a 30 s interscan relaxation delay. Reference spectra and the spectra measured under steady-state conditions were measured in an interleaved manner.

[2] = target: T2, PDZ (S286E/S329E) of human DVL2 (Homo sapiens, UniProt O14641, S286E/S329E); test: NMR titration with DVL C-terminal peptide, PDZ phosphorylation-mimicking variant
T2 construct: The PDZ domain of human DVL2 wild type (aa 265–361) and phosphorylation-mimicking variant S286E + S329E; His6-tag (N, cleaved yes); lipoyl domain (N, cleaved yes); made in house; host or cells: E. coli BL21 (DE3)
T2 sequence (O14641 265-361 S286E/S329E): T1 sequence (O14641 265-361) with S22E, S65E
Procedure: as §1, §2

PDZ wild type from DVL2 = target: T3, PDZ wild type from DVL2 (Homo sapiens, UniProt O14641); test: Surface plasmon resonance, PDZ wild type; conditions: for Response (R.U.): SPR, equilibrium
T3 construct: The PDZ domain of human DVL2 wild type (aa 265–361); His6-tag (N, cleaved yes); lipoyl domain (N, cleaved yes); made in house; host or cells: E. coli BL21 (DE3)
T3 sequence (O14641 265-361): T1 sequence (O14641 265-361)
Procedure: as §1
(§3) SPR experiments were performed on a Biacore T200 instrument (GE Healthare). The wild type and phosphorylation-mimicking variant of PDZ from DVL2 were immobilized on carboxy-methylated dextran matrix (CM5 chip S Series) using amino coupling. Non-reacted groups were blocked by 1 M ethanolamine. […] The C-terminal DVL peptide (aa 698–716 from DVL3; pS700) was injected at increasing concentrations and long enough to reach steady state. SPR responses were measured and corrected for the response of the blank. Data points were collected from each binding sensogram before the end of the injection (equilibrium) and the dissociation constants were estimated by fitting the response at equilibrium versus the C-terminal peptide concentration using the following equation: Req = C*Rmax/(KD + C), where Req is the binding level in Response Units at different C-terminal peptide concentrations (C), Rmax the response at saturation (fitted), and KD the apparent dissociation constant (fitted).

[3] = target: T4, PDZ (S286E/S329E) from DVL2 (Homo sapiens, UniProt O14641, S286E/S329E); test: Surface plasmon resonance, PDZ phosphorylation-mimicking variant; conditions: for Response (R.U.): SPR, equilibrium
T4 construct: The PDZ domain of human DVL2 wild type (aa 265–361) and phosphorylation-mimicking variant S286E + S329E; His6-tag (N, cleaved yes); lipoyl domain (N, cleaved yes); made in house; host or cells: E. coli BL21 (DE3)
T4 sequence (O14641 265-361 S286E/S329E): T1 sequence (O14641 265-361) with S22E, S65E
Procedure: as §1, §3

[4] = Biacore T200, PDZ immobilized on CM5 chip, steady-state fit, read-out: apparent KD (SPR, one-site binding model)

## CSCC[C@H](NC(=O)[C@@H](NC(=O)[C@H](CC(=O)O)NC(=O)[C@@H](NC(=O)[C@H](Cc1ccccc1)NC(=O)[C@H](Cc1ccccc1)NC(=O)[C@H](CCC(=O)O)NC(=O)[C@H](CO)NC(=O)[C@@H]1CCCN1C(=O)[C@H](CC(N)=O)NC(=O)CNC(=O)[C@H](CCSC)NC(=O)[C@H](C)NC(=O)[C@H](CCSC)NC(=O)[C@H](CCCNC(=N)N)NC(=O)[C@H](Cc1ccccc1)NC(=O)[C@H](COP(=O)(O)O)NC(=O)[C@H](CCC(N)=O)NC(=O)[C@@H](N)CCCNC(=N)N)C(C)C)C(C)C)C(=O)O [DVL C-terminal peptide] (H-RQ[pS]FRMAMGNPSEFFVDVM-OH)
[1]; pFRMA 50 uM
  Δδ (p.p.m.) F277: 0.028 p.p.m.
  Δδ (p.p.m.) H342: 0.043 p.p.m.
  Δδ (p.p.m.) K301: 0.035 p.p.m.
[1]; pFRMA 100 uM
  Δδ (p.p.m.) F277: 0.046 p.p.m.
  Δδ (p.p.m.) H342: 0.07 p.p.m.
  Δδ (p.p.m.) K301: 0.06 p.p.m.
[1]; pFRMA 200 uM
  Δδ (p.p.m.) F277: 0.066 p.p.m.
  Δδ (p.p.m.) H342: 0.109 p.p.m.
  Δδ (p.p.m.) K301: 0.092 p.p.m.
[1]; pFRMA 400 uM
  Δδ (p.p.m.) F277: 0.112 p.p.m.
  Δδ (p.p.m.) H342: 0.174 p.p.m.
  Δδ (p.p.m.) K301: 0.148 p.p.m.
[2]; fast exchange peaks, quantitative analysis
  affinity of phosphorylation-mimicking variant compared with PDZ wt (NMR): two-fold weaker affinity
[2]; pFRMA 50 uM
  Δδ (p.p.m.) F277: 0.02 p.p.m.
  Δδ (p.p.m.) H342: 0.032 p.p.m.
  Δδ (p.p.m.) K301: 0.026 p.p.m.
[2]; pFRMA 100 uM
  Δδ (p.p.m.) F277: 0.03 p.p.m.
  Δδ (p.p.m.) H342: 0.056 p.p.m.
  Δδ (p.p.m.) K301: 0.044 p.p.m.
[2]; pFRMA 200 uM
  Δδ (p.p.m.) F277: 0.048 p.p.m.
  Δδ (p.p.m.) H342: 0.093 p.p.m.
  Δδ (p.p.m.) K301: 0.071 p.p.m.
[2]; pFRMA 400 uM
  Δδ (p.p.m.) F277: 0.084 p.p.m.
  Δδ (p.p.m.) H342: 0.164 p.p.m.
  Δδ (p.p.m.) K301: 0.128 p.p.m.
PDZ wild type from DVL2; [4]
  Kd: 305 µM
PDZ wild type from DVL2; pFRMA 3.125 uM
  Response (R.U.): 3.399 R.U.
PDZ wild type from DVL2; pFRMA 6.25 uM
  Response (R.U.): 3.725 R.U.
PDZ wild type from DVL2; pFRMA 12.5 uM
  Response (R.U.): 4.287 R.U.
PDZ wild type from DVL2; pFRMA 25 uM
  Response (R.U.): 4.98 R.U.
PDZ wild type from DVL2; pFRMA 50 uM
  Response (R.U.): 6.694 R.U.
PDZ wild type from DVL2; pFRMA 100 uM
  Response (R.U.): 9.137 R.U.
PDZ wild type from DVL2; pFRMA 200 uM
  Response (R.U.): 14.3144 R.U.
PDZ wild type from DVL2; pFRMA 400 uM
  Response (R.U.): 24.5768 R.U.
[3]; [4]
  Kd: 754 µM
[3]; pFRMA 3.125 uM
  Response (R.U.): 1.637 R.U.
[3]; pFRMA 6.25 uM
  Response (R.U.): 1.9305 R.U.
[3]; pFRMA 12.5 uM
  Response (R.U.): 2.181 R.U.
[3]; pFRMA 25 uM
  Response (R.U.): 2.621 R.U.
[3]; pFRMA 50 uM
  Response (R.U.): 3.732 R.U.
[3]; pFRMA 100 uM
  Response (R.U.): 5.135 R.U.
[3]; pFRMA 200 uM
  Response (R.U.): 8.677 R.U.
[3]; pFRMA 400 uM
  Response (R.U.): 16.554 R.U.
[3]; apparent dissociation constants from SPR
  peptide affinity of phosphorylation-mimicking variant compared with PDZ wt (SPR): two-fold lower peptide affinity
